Where two headings read alike, the source gives them in different places. Where a SMILES comes first, the peptide text is derived from it. The star is where a group is joined. Undecanoyl = CCCCCCCCCCC(=O)*; Cbz = O=C(OCc1ccccc1)*; Butyryl = CCCC(=O)*; NHiBu = CC(C)CN*; NHPr = CCCN*
What was measured:
pancreatic elastase = pancreatic elastase (UniProt P00772); assay: Inhibition of pancreatic elastase (PE), Ki with synthetic nitroanilide substrates; format: biochemical
leucocytal elastase = target: T1, leucocytal elastase (Homo sapiens, UniProt P08246); assay: Inhibition of leucocytal elastase (LE), Ki with synthetic nitroanilide substrate; format: biochemical; settings: substrate Glt-(Ala)3-Val-Nan; for Ki: read-out: Inhibition constant Ki, LE, Glt--(Ala)3--Val--Nan
T1 sequence (P08246 30-267): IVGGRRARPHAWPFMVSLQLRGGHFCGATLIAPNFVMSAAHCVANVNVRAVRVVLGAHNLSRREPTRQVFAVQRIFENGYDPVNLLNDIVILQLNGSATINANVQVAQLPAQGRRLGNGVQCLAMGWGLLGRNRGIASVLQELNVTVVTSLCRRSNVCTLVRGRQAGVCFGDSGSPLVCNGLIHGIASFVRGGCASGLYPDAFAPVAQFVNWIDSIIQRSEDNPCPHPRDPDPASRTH

[1] = substrate Glt-(Ala)4-Nan, read-out: Inhibition constant Ki, PE, Glt--(Ala)4--Nan
[2] = substrate Suc-(Ala)4-Nan, read-out: Inhibition constant Ki, PE, Suc--(Ala)4--Nan

Chain of pancreatic elastase (P00772 27-266): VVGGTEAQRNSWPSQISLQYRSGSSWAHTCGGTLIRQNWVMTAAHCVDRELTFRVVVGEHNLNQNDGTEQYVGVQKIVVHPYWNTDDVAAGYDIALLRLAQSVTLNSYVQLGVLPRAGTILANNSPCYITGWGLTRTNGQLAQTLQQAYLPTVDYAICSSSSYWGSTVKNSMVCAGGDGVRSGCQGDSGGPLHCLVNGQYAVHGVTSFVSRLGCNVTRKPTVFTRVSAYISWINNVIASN

SMILES	Ki (pancreatic elastase; [1]) [µM]	Ki (pancreatic elastase; [2]) [µM]	Ki (leucocytal elastase) [µM]	Inhibition constant Ki, LE, Glt--(Ala)3--Val--Nan (leucocytal elastase)
CCCC(=O)N[C@@H](CC(=O)O)C(=O)N[C@@H](C)C(=O)N[C@@H](C)C(=O)N1CCC[C@H]1C(=O)NCC(C)C [Btr--Asp--Ala--Ala--Pro--NH--iBu, N^α -Butyrylaspartyl-alanyl-alanyl-proline isobutylamide] (Butyryl-DAAP-NHiBu)	120	120	136	–
CCCNC(=O)[C@@H]1CCCN1C(=O)[C@H](C)NC(=O)[C@H](C)NC(=O)[C@H](CCC(=O)O)NC(=O)CCC [Btr--Glu--Ala--Ala--Pro--NH--Pr] (Butyryl-EAAP-NHPr)	193	178	180	–
CCNC(=O)[C@H](C)NC(=O)[C@H](C)NC(=O)[C@H](C)NC(=O)[C@H](CCC(=O)O)NC(=O)OCc1ccccc1 [Z--Glu--Ala--Ala--Ala--NH--Et] (Cbz-EAAA-NHEt)	173	28	720	–

Now those with a lower Ki (pancreatic elastase; [1]), led by results:

Ki (pancreatic elastase; [1]) [µM]	Ki (pancreatic elastase; [2]) [µM]	Ki (leucocytal elastase) [µM]	Inhibition constant Ki, LE, Glt--(Ala)3--Val--Nan (leucocytal elastase)	SMILES
34	25	1000	–	CCNC(=O)[C@H](C)NC(=O)[C@H](C)NC(=O)[C@@H]1CCCN1C(=O)[C@H](CC(=O)O)NC(C)=O [Ac--Asp--Pro--Ala--Ala--NH--Et, N^α -Acetylaspartyl-prolyl-alanyl-alanine ethylamide] (Ac-DPAA-NHEt)
1.8	2.5	–	no inhibition	CCCCCCCCCC=CCC(CC(=O)O)C(=O)N[C@@H](C)C(=O)N[C@@H](C)C(=O)N[C@@H](C)C(=O)NCC (some centres unmarked) [Dde--Ala--Ala--Ala--NH--Et, N-(2-Dodecenylsuccinyl)alanyl-alanyl-alanine ethylamide]
93	99	515	–	CCCCCCCCCC=CCC(CC(=O)O)C(=O)N[C@@H](C)C(=O)N[C@@H](C)C(=O)N[C@@H](C)C(=O)NCC(C)C (some centres unmarked) [Dde--Ala--Ala--Ala--NH--iBu]
0.6	0.5	100	–	CCCCCCCCCC=CCC(CC(=O)O)C(=O)N[C@@H](C)C(=O)N[C@@H](C)C(=O)N1CCC[C@H]1C(=O)NCCC (some centres unmarked) [Dde--Ala--Ala--Pro--NH--Pr, N-(2-Dodecenylsuccinyl)alanyl-alanyl-proline propylamide]
5.4	–	12	–	CCCCCCCCCCC(=O)N[C@@H](CC(=O)O)C(=O)N[C@@H](C)C(=O)N[C@@H](C)C(=O)N1CCC[C@H]1C(=O)NCC [UDA--Asp--Ala--Ala--Pro--NH--Et, N^α -Undecanoylaspartyl-alanyl-alanyl-proline ethylamide] (Undecanoyl-DAAP-NHEt)
